{"source": "PubChem BioAssay (NCI)", "assay_in_all_cases": "NCI anticancer screen, dose series, 48 h", "key": {"UACC-62 melanoma": {"tested_on": "UACC-62 melanoma"}, "PC-3 prostate": {"tested_on": "PC-3 prostate"}, "HCT-116 colon": {"tested_on": "HCT-116 colon"}, "HOP-62 NSCLC": {"tested_on": "HOP-62 NSCLC"}, "SR leukemia": {"tested_on": "SR leukemia"}, "OVCAR-5 ovarian": {"tested_on": "OVCAR-5 ovarian"}, "HS 578T breast": {"tested_on": "HS 578T breast"}, "KM12 colon": {"tested_on": "KM12 colon"}, "DU-145 prostate": {"tested_on": "DU-145 prostate"}, "NCI-H23 lung": {"tested_on": "NCI-H23 lung"}}, "note": "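Five concentrations, 48 hours, 96-well plates. GI50: concentration for 50% inhibition of growth. TGI denotes the concentration required for complete inhibition of growth.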"}
{"smiles": "COc1ccc(C(=O)c2cc(C)c(OC)c(C)c2)cc1OC(=O)CCl", "values": [{"measurement": "GI50", "setting": "UACC-62 melanoma", "value": 0.0402, "unit": "µM"}, {"measurement": "TGI", "setting": "UACC-62 melanoma", "value": "> 100", "unit": "µM"}, {"measurement": "GI50", "setting": "PC-3 prostate", "value": "< 0.021", "unit": "µM"}, {"measurement": "TGI", "setting": "PC-3 prostate", "value": "> 100", "unit": "µM"}, {"measurement": "GI50", "setting": "HCT-116 colon", "value": "< 0.0111", "unit": "µM"}, {"measurement": "TGI", "setting": "HCT-116 colon", "value": "> 100", "unit": "µM"}, {"measurement": "GI50", "setting": "HOP-62 NSCLC", "value": "< 0.0191", "unit": "µM"}, {"measurement": "TGI", "setting": "HOP-62 NSCLC", "value": "> 100", "unit": "µM"}, {"measurement": "GI50", "setting": "SR leukemia", "value": "< 0.01", "unit": "µM"}, {"measurement": "TGI", "setting": "SR leukemia", "value": "> 100", "unit": "µM"}, {"measurement": "GI50", "setting": "OVCAR-5 ovarian", "value": 1.71, "unit": "µM"}, {"measurement": "TGI", "setting": "OVCAR-5 ovarian", "value": "> 100", "unit": "µM"}, {"measurement": "GI50", "setting": "HS 578T breast", "value": "< 0.01", "unit": "µM"}, {"measurement": "TGI", "setting": "HS 578T breast", "value": 98.5, "unit": "µM"}, {"measurement": "GI50", "setting": "KM12 colon", "value": "< 0.01", "unit": "µM"}, {"measurement": "TGI", "setting": "KM12 colon", "value": "> 65.3", "unit": "µM"}, {"measurement": "GI50", "setting": "DU-145 prostate", "value": "< 0.01", "unit": "µM"}, {"measurement": "TGI", "setting": "DU-145 prostate", "value": "> 100", "unit": "µM"}, {"measurement": "GI50", "setting": "NCI-H23 lung", "value": "< 0.0293", "unit": "µM"}, {"measurement": "TGI", "setting": "NCI-H23 lung", "value": "> 100", "unit": "µM"}]}
{"smiles": "C=C1C(=O)O[C@H]2[C@H]1CC/C(COC(=O)NCCCCNC(=O)OC/C1=C/CC[C@@]3(C)O[C@H]3[C@H]3OC(=O)C(=C)[C@@H]3CC1)=C\\CC[C@@]1(C)O[C@@H]21", "values": [{"measurement": "GI50", "setting": "UACC-62 melanoma", "value": 0.753, "unit": "µM"}, {"measurement": "TGI", "setting": "UACC-62 melanoma", "value": 2.5, "unit": "µM"}, {"measurement": "GI50", "setting": "PC-3 prostate", "value": 2.55, "unit": "µM"}, {"measurement": "TGI", "setting": "PC-3 prostate", "value": 8.05, "unit": "µM"}, {"measurement": "GI50", "setting": "HCT-116 colon", "value": 1.12, "unit": "µM"}, {"measurement": "TGI", "setting": "HCT-116 colon", "value": 2.63, "unit": "µM"}, {"measurement": "GI50", "setting": "HOP-62 NSCLC", "value": 3.84, "unit": "µM"}, {"measurement": "TGI", "setting": "HOP-62 NSCLC", "value": 14, "unit": "µM"}, {"measurement": "GI50", "setting": "SR leukemia", "value": 0.549, "unit": "µM"}, {"measurement": "TGI", "setting": "SR leukemia", "value": 3.51, "unit": "µM"}, {"measurement": "GI50", "setting": "OVCAR-5 ovarian", "value": 1.75, "unit": "µM"}, {"measurement": "TGI", "setting": "OVCAR-5 ovarian", "value": 3.69, "unit": "µM"}, {"measurement": "GI50", "setting": "HS 578T breast", "value": 2.54, "unit": "µM"}, {"measurement": "TGI", "setting": "HS 578T breast", "value": 8.14, "unit": "µM"}, {"measurement": "GI50", "setting": "KM12 colon", "value": 3.18, "unit": "µM"}, {"measurement": "TGI", "setting": "KM12 colon", "value": 10.5, "unit": "µM"}, {"measurement": "GI50", "setting": "DU-145 prostate", "value": 3.21, "unit": "µM"}, {"measurement": "TGI", "setting": "DU-145 prostate", "value": 10.5, "unit": "µM"}, {"measurement": "GI50", "setting": "NCI-H23 lung", "value": 2.18, "unit": "µM"}, {"measurement": "TGI", "setting": "NCI-H23 lung", "value": 5.54, "unit": "µM"}]}
{"smiles": "COc1ccc(C2=C(Cl)c3cc(OC)c(OC)cc3C2Cl)cc1", "note": "(stereo not given)", "values": [{"measurement": "TGI", "setting": "UACC-62 melanoma", "value": 31.4, "unit": "µM"}, {"measurement": "TGI", "setting": "PC-3 prostate", "value": 26.3, "unit": "µM"}, {"measurement": "TGI", "setting": "HCT-116 colon", "value": 31.3, "unit": "µM"}, {"measurement": "TGI", "setting": "HOP-62 NSCLC", "value": 32.2, "unit": "µM"}, {"measurement": "TGI", "setting": "SR leukemia", "value": "> 100", "unit": "µM"}, {"measurement": "TGI", "setting": "OVCAR-5 ovarian", "value": 29.2, "unit": "µM"}, {"measurement": "TGI", "setting": "HS 578T breast", "value": 76.5, "unit": "µM"}, {"measurement": "TGI", "setting": "KM12 colon", "value": 26.4, "unit": "µM"}, {"measurement": "TGI", "setting": "DU-145 prostate", "value": 45.4, "unit": "µM"}, {"measurement": "TGI", "setting": "NCI-H23 lung", "value": "> 54.5", "unit": "µM"}]}
{"smiles": "COc1c2c(cc3c1OCO3)[C@]13C=C[C@H](OC)C[C@H]1N(C2)CC3O", "note": "(stereo not given in full)", "values": [{"measurement": "TGI", "setting": "UACC-62 melanoma", "value": "> 100", "unit": "µM"}, {"measurement": "TGI", "setting": "PC-3 prostate", "value": "> 100", "unit": "µM"}, {"measurement": "TGI", "setting": "HCT-116 colon", "value": "> 100", "unit": "µM"}, {"measurement": "TGI", "setting": "HOP-62 NSCLC", "value": "> 100", "unit": "µM"}, {"measurement": "TGI", "setting": "SR leukemia", "value": "> 100", "unit": "µM"}, {"measurement": "TGI", "setting": "OVCAR-5 ovarian", "value": "> 100", "unit": "µM"}, {"measurement": "TGI", "setting": "HS 578T breast", "value": "> 100", "unit": "µM"}, {"measurement": "TGI", "setting": "KM12 colon", "value": "> 100", "unit": "µM"}, {"measurement": "TGI", "setting": "DU-145 prostate", "value": "> 100", "unit": "µM"}, {"measurement": "TGI", "setting": "NCI-H23 lung", "value": "> 100", "unit": "µM"}]}
